Measured values published in PubChem BioAssay (NCI).
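Grown in 96-well plates, cells were treated for 48 hours with each compound at five concentrations. Insufficient inhibition: endpoint recorded as highest concentration tested. GI50 is the concentration that inhibits growth by half. The concentration for full growth arrest is given as TGI.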

Key:
Test in all cases: DTP human tumour cell line panel, 48 h
MDA-MB-468 breast = test system: MDA-MB-468 breast
A498 renal = test system: A498 renal
M14 melanoma = test system: M14 melanoma
UACC-257 melanoma = test system: UACC-257 melanoma
HCT-116 colon = test system: HCT-116 colon
NCI-H226 lung = test system: NCI-H226 lung
NCI/ADR-RES ovarian = test system: NCI/ADR-RES ovarian
DU-145 prostate = test system: DU-145 prostate
EKVX NSCLC = test system: EKVX NSCLC
PC-3 prostate = test system: PC-3 prostate
K-562 leukemia = test system: K-562 leukemia
SF-539 CNS = test system: SF-539 CNS
LOX IMVI melanoma = test system: LOX IMVI melanoma
HCC-2998 colon = test system: HCC-2998 colon
SK-MEL-28 melanoma = test system: SK-MEL-28 melanoma
SNB-19 CNS = test system: SNB-19 CNS
HT29 colon = test system: HT29 colon
T-47D breast = test system: T-47D breast
SW-620 colon = test system: SW-620 colon
OVCAR-4 ovarian = test system: OVCAR-4 ovarian
TK-10 renal = test system: TK-10 renal
MDA-MB-435 = test system: MDA-MB-435
UO-31 renal = test system: UO-31 renal
SR leukemia = test system: SR leukemia
RPMI-8226 leukemia = test system: RPMI-8226 leukemia
HL-60(TB) leukemia = test system: HL-60(TB) leukemia
A549 NSCLC = test system: A549 NSCLC
KM12 colon = test system: KM12 colon
HOP-92 NSCLC = test system: HOP-92 NSCLC
MOLT-4 leukemia = test system: MOLT-4 leukemia
NCI-H23 lung = test system: NCI-H23 lung
SK-MEL-2 melanoma = test system: SK-MEL-2 melanoma
SN12C renal = test system: SN12C renal
COLO 205 colon = test system: COLO 205 colon
MDA-MB-231 breast = test system: MDA-MB-231 breast
OVCAR-3 ovarian = test system: OVCAR-3 ovarian
IGROV1 ovarian = test system: IGROV1 ovarian
SF-295 CNS = test system: SF-295 CNS
CCRF-CEM leukemia = test system: CCRF-CEM leukemia
OVCAR-5 ovarian = test system: OVCAR-5 ovarian
786-0 renal = test system: 786-0 renal
NCI-H522 lung = test system: NCI-H522 lung
CAKI-1 renal = test system: CAKI-1 renal
U251 CNS = test system: U251 CNS
MALME-3M melanoma = test system: MALME-3M melanoma
RXF 393 renal = test system: RXF 393 renal
UACC-62 melanoma = test system: UACC-62 melanoma
SF-268 CNS = test system: SF-268 CNS
ACHN renal = test system: ACHN renal
SNB-75 CNS = test system: SNB-75 CNS
OVCAR-8 ovarian = test system: OVCAR-8 ovarian
SK-MEL-5 melanoma = test system: SK-MEL-5 melanoma
NCI-H460 lung = test system: NCI-H460 lung
BT-549 breast = test system: BT-549 breast
HCT-15 colon = test system: HCT-15 colon
HOP-62 NSCLC = test system: HOP-62 NSCLC
SK-OV-3 ovarian = test system: SK-OV-3 ovarian
HS 578T breast = test system: HS 578T breast

Structure (SMILES): CCOC(=O)N1C/C(=C/c2ccc(F)cc2)C(=O)/C(=C/c2ccc(F)cc2)C1
- GI50 (MDA-MB-468 breast): 1.26 µM
- TGI (MDA-MB-468 breast): 2.9 µM

Structure (SMILES): Nc1nc2c(c3ncccc13)C(c1cccc(Br)c1)Cc1ncccc1-2 (configuration not stated)
- GI50 (MDA-MB-468 breast): 0.349 µM
- TGI (MDA-MB-468 breast): 7.66 µM

Structure (SMILES): COc1ccc2[nH]c(-c3ccccc3)c(/C=C(\C#N)S(=O)(=O)c3ccccc3)c2c1
- GI50 (MDA-MB-468 breast): 4.17 µM
- TGI (MDA-MB-468 breast): > 100 µM

Structure (SMILES): O=C(Nc1cccc(-n2cc(-c3ccncc3)c(-c3ccc(Cl)c(O)c3)n2)c1)Nc1ccc(Cl)c(C(F)(F)F)c1
- GI50 (MDA-MB-468 breast): 0.547 µM
- TGI (MDA-MB-468 breast): 2.23 µM

Structure (SMILES): O=C1c2ccccc2-c2nnc(-c3ccc(Br)cc3)cc21
- GI50 (MDA-MB-468 breast): > 100 µM
- TGI (MDA-MB-468 breast): > 100 µM

Structure (SMILES): O=C1C=CC(=O)N1C1CCCCCCCCCCC1
- GI50 (MDA-MB-468 breast): 2.21 µM
- TGI (MDA-MB-468 breast): 6.8 µM

Structure (SMILES): CCCS(=O)(=O)Nc1ccc(F)c(C(=O)c2c[nH]c3ncc(Cl)cc23)c1F
- GI50 (MDA-MB-468 breast): 7.64 µM
- TGI (MDA-MB-468 breast): 49.5 µM

Structure (SMILES): CN(C)CCCOc1ccc(OCCCN(C)C)c2c1C(=O)c1ccccc1C2=O
- GI50 (MDA-MB-468 breast): 0.58 µM
- TGI (MDA-MB-468 breast): 2.95 µM

Structure (SMILES): O=C(N/N=C\c1ccc(Cl)cc1)c1ccc2nc(-c3ccc(Br)cc3)[nH]c2c1
- GI50 (MDA-MB-468 breast): 2.02 µM
- TGI (MDA-MB-468 breast): 3.86 µM

Structure (SMILES): CCCCN1CCN(c2ccc3nc(-c4ccc5nc(-c6ccc(OC)c(OC)c6)[nH]c5c4)[nH]c3c2)CC1
- GI50 (MDA-MB-468 breast): 0.37 µM
- TGI (MDA-MB-468 breast): 1.33 µM

Structure (SMILES): CCn1cc(C(=O)O)c(=O)c2cc(F)c(N3CCN(S(=O)(=O)c4ccc(Cl)cc4)CC3)cc21
- GI50 (MDA-MB-468 breast): 2.1 µM
- TGI (MDA-MB-468 breast): 6.24 µM

Structure (SMILES): O=c1c2cc(F)ccc2sc2c(N3CCNCC3)nc3ccccc3c12
- GI50 (MDA-MB-468 breast): 1.58 µM
- TGI (MDA-MB-468 breast): 3.19 µM

Structure (SMILES): COc1cc2ncn(-c3cc(O[C@H](C)c4ccccc4Cl)c(C(N)=O)s3)c2cc1OC
- GI50 (MDA-MB-468 breast): 0.00789 µM
- TGI (MDA-MB-468 breast): 4 µM

Structure (SMILES): Fc1cnc(NC2CC2)nc1-c1cnc2ccc(N3CCOCC3)cn12
- GI50 (MDA-MB-468 breast): 0.182 µM
- TGI (MDA-MB-468 breast): 0.429 µM

Structure (SMILES): COc1cc2c3c(n(CCCN4CCOCC4)c(=O)c2cc1OC)-c1nc2c(cc1C3=O)OCO2
- GI50 (A498 renal): > 69.2 µM
- TGI (A498 renal): > 100 µM
- GI50 (M14 melanoma): 0.25 µM
- TGI (M14 melanoma): > 100 µM
- TGI (UACC-257 melanoma): > 100 µM
- GI50 (HCT-116 colon): 0.416 µM
- TGI (HCT-116 colon): > 100 µM
- GI50 (NCI-H226 lung): 0.495 µM
- TGI (NCI-H226 lung): > 33 µM
- GI50 (NCI/ADR-RES ovarian): 0.327 µM
- TGI (NCI/ADR-RES ovarian): 3.68 µM
- GI50 (DU-145 prostate): 0.418 µM
- TGI (DU-145 prostate): > 100 µM
- GI50 (EKVX NSCLC): 1.97 µM
- TGI (EKVX NSCLC): > 100 µM
- GI50 (PC-3 prostate): 2.09 µM
- TGI (PC-3 prostate): > 100 µM
- GI50 (K-562 leukemia): 0.177 µM
- TGI (K-562 leukemia): > 82.9 µM
- GI50 (SF-539 CNS): 0.226 µM
- TGI (SF-539 CNS): 1.33 µM
- GI50 (LOX IMVI melanoma): 0.17 µM
- TGI (LOX IMVI melanoma): 1.47 µM
- GI50 (HCC-2998 colon): 1.86 µM
- TGI (HCC-2998 colon): > 100 µM
- GI50 (SK-MEL-28 melanoma): > 52 µM
- TGI (SK-MEL-28 melanoma): > 100 µM
- GI50 (SNB-19 CNS): 0.271 µM
- TGI (SNB-19 CNS): > 100 µM
- GI50 (HT29 colon): 0.442 µM
- TGI (HT29 colon): 11.6 µM
- GI50 (T-47D breast): 0.185 µM
- TGI (T-47D breast): > 100 µM
- GI50 (SW-620 colon): 0.477 µM
- TGI (SW-620 colon): > 100 µM
- GI50 (OVCAR-4 ovarian): > 100 µM
- TGI (OVCAR-4 ovarian): > 100 µM
- GI50 (TK-10 renal): > 100 µM
- TGI (TK-10 renal): > 100 µM
- GI50 (MDA-MB-435): 0.828 µM
- TGI (MDA-MB-435): > 100 µM
- GI50 (UO-31 renal): 0.499 µM
- TGI (UO-31 renal): > 100 µM
- GI50 (SR leukemia): 0.0606 µM
- TGI (SR leukemia): > 49 µM
- GI50 (RPMI-8226 leukemia): 0.341 µM
- TGI (RPMI-8226 leukemia): > 56.4 µM
- GI50 (HL-60(TB) leukemia): 1.25 µM
- TGI (HL-60(TB) leukemia): > 100 µM
- GI50 (A549 NSCLC): 3.43 µM
- TGI (A549 NSCLC): > 100 µM
- GI50 (KM12 colon): > 53.9 µM
- TGI (KM12 colon): > 100 µM
- GI50 (HOP-92 NSCLC): 2.87 µM
- TGI (HOP-92 NSCLC): > 100 µM
- GI50 (MOLT-4 leukemia): 0.0581 µM
- TGI (MOLT-4 leukemia): 16 µM
- GI50 (NCI-H23 lung): 0.185 µM
- TGI (NCI-H23 lung): 1.52 µM
- GI50 (SK-MEL-2 melanoma): > 100 µM
- TGI (SK-MEL-2 melanoma): > 100 µM
- GI50 (SN12C renal): 2.72 µM
- TGI (SN12C renal): > 100 µM
- GI50 (COLO 205 colon): 1.36 µM
- TGI (COLO 205 colon): > 100 µM
- GI50 (MDA-MB-231 breast): 2.38 µM
- TGI (MDA-MB-231 breast): 5.62 µM
- GI50 (OVCAR-3 ovarian): 4.61 µM
- TGI (OVCAR-3 ovarian): > 100 µM
- GI50 (IGROV1 ovarian): > 100 µM
- TGI (IGROV1 ovarian): > 100 µM
- GI50 (SF-295 CNS): 0.0556 µM
- TGI (SF-295 CNS): 1.7 µM
- GI50 (MDA-MB-468 breast): 0.13 µM
- TGI (MDA-MB-468 breast): 0.51 µM
- GI50 (CCRF-CEM leukemia): 0.0351 µM
- TGI (CCRF-CEM leukemia): 1.72 µM
- GI50 (OVCAR-5 ovarian): 4.91 µM
- TGI (OVCAR-5 ovarian): > 100 µM
- GI50 (786-0 renal): 0.593 µM
- TGI (786-0 renal): 29.4 µM
- GI50 (NCI-H522 lung): 0.277 µM
- TGI (NCI-H522 lung): 15.7 µM
- GI50 (CAKI-1 renal): 0.159 µM
- TGI (CAKI-1 renal): > 100 µM
- GI50 (U251 CNS): 0.109 µM
- TGI (U251 CNS): 3.78 µM
- GI50 (MALME-3M melanoma): 1.75 µM
- TGI (MALME-3M melanoma): > 100 µM
- GI50 (RXF 393 renal): 1.2 µM
- GI50 (UACC-62 melanoma): 0.117 µM
- TGI (UACC-62 melanoma): > 100 µM
- GI50 (SF-268 CNS): 0.892 µM
- TGI (SF-268 CNS): > 100 µM
- GI50 (ACHN renal): 0.15 µM
- TGI (ACHN renal): > 100 µM
- GI50 (SNB-75 CNS): 0.254 µM
- TGI (SNB-75 CNS): > 64.5 µM
- GI50 (OVCAR-8 ovarian): 2.92 µM
- TGI (OVCAR-8 ovarian): > 100 µM
- GI50 (SK-MEL-5 melanoma): 0.18 µM
- TGI (SK-MEL-5 melanoma): 0.61 µM
- GI50 (NCI-H460 lung): 0.0772 µM
- TGI (NCI-H460 lung): 2.35 µM
- GI50 (BT-549 breast): 0.619 µM
- TGI (BT-549 breast): 8.43 µM
- GI50 (HCT-15 colon): 1.24 µM
- TGI (HCT-15 colon): > 100 µM
- GI50 (HOP-62 NSCLC): 0.051 µM
- TGI (HOP-62 NSCLC): 0.748 µM
- GI50 (SK-OV-3 ovarian): 0.217 µM
- TGI (SK-OV-3 ovarian): 4 µM
- GI50 (HS 578T breast): 25.3 µM
- TGI (HS 578T breast): > 100 µM
